Measured values from article PMC7413254 (Nature Communications, 2020).
Where two headings read alike, the source gives them in different places.

Tests used:
[1] = tested on: PfCRT; assay: Potential co-substrates tested for influx of VF-6 via PfCRT into the oocyte; type: cell-based, Plasmodium falciparum; set-up: key: X: Compounds that have been tested as potential co-substrates but are not required for influx of VF-6 via PfCRT into the oocyte
[2] = target: T1, PfCRT^3D7 (Plasmodium falciparum, UniProt Q8IBZ9); assay: cell-based; type: cell-based; details: total [3H]CQ transport; for inhibition at 500 µM: [test solute] = 0.5 mM; for inhibition at 1000 µM: [test solute] = 1 mM; for inhibition at 2000 µM: [test solute] = 2 mM
In short: (§1)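 Radioactivity accumulated per oocyte, read by liquid scintillation after 10% SDS lysis, served as the uptake measure. Incubations ran 1.5 h at 27.5 °C in ND96 at pH 5.5, matching digestive-vacuole acidity.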

[3] = tested on: non-expressing oocytes; type: cell-based, Xenopus laevis; details: total [3H]CQ transport; for Uptake of [3H]CQ (% non-expressing oocyte control), trans-stimulation: non-expressing oocytes, normalised to the oocyte type control; for Uptake of [3H]CQ (% PfCRTDd2 control), trans-stimulation, non-expressing oocytes: mean ± SEM, SEM
In short: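 Oocytes (ten per treatment, ≥4 independent frogs/days) were preloaded by injecting VF-6 in 25 nL ND96 at pH 5.0, 5.5, 6.0 or 7.0, or Na^+-free choline buffer, then uptake run 1.5 h, 27.5 °C, ND96 pH 5.5 by default. Internal concentrations assumed ~400 nL oocyte volume.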

[4] = tested on: PfCRT; assay: Test of solutes as potential co-substrates for influx of VF-6 via PfCRT into the oocyte; type: cell-based, Plasmodium falciparum; set-up: key: X: Compounds that have been tested as potential co-substrates but are not required for influx of VF-6 via PfCRT into the oocyte; details: X = tested
[5] = target: T2, PfNT1 (Plasmodium falciparum, UniProt Q8IDM6); assay: cell-based; type: cell-based; details: for activity at 5000 µM: total [3H]CQ transport
T2 construct: expressed in transfected cells; host or cells: Xenopus laevis oocytes (stage V-VI), cRNA-injected
In short: (§2)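 Transport measured in Xenopus oocytes expressing the transporters, 1.5 h at 27.5 °C in ND96 pH 5.5 unless noted. For trans-stimulation, VF-6 injected in 25 nL ND96 at pH 5.0–7.0 or Na^+-free (choline) buffer; intracellular levels based on ~400 nL oocyte volume. Ten oocytes per treatment, ≥4 experiments.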

[6] = target: T3, PfCRT^Ecu1110 (Plasmodium falciparum, UniProt Q9N623, A220S/I356L/K76T/N326D); assay: cell-based; type: cell-based; details: […]
In short: as §2

[7] = target: T4, PfCRT^Dd2 (Plasmodium falciparum, UniProt Q9N623, A220S/I356T/K76T/M74I/N326S/N75E/Q271E/R371I); assay: cell-based; type: cell-based; details: […]; for activity at 45000 µM: [test solute]i = 45 mM (30 mM for some solutes due to solubility)
In short: as §2

[8] = target: T1, PfCRT^3D7; assay: cell-based; type: cell-based
In short: as §2

[9] = tested on: non-expressing oocytes; assay: cells; type: cell-based, Xenopus laevis; details: Xenopus laevis, total [3H]CQ transport; for inhibition at 500 µM: [test solute] = 0.5 mM; for inhibition at 1000 µM: [test solute] = 1 mM; for inhibition at 2000 µM: [test solute] = 2 mM
In short: as §1

[10] = target: T3, PfCRT^Ecu1110; assay: [3H]CQ uptake into Xenopus oocytes, cis-inhibition by unlabelled solute; type: cell-based
In short: as §1

[11] = target: T4, PfCRT^Dd2; assay: as above; type: cell-based
In short: as §1

[12] = PfCRT3D7 oocytes, normalised to the oocyte type control, read-out: Uptake of [3H]CQ (% PfCRT3D7 control), cis-inhibition
[13] = mean ± SEM, SEM, read-out: Uptake of [3H]CQ (% PfCRTDd2 control), cis-inhibition, PfCRT3D7
[14] = Oocyte, mean ± SEM, SEM, read-out: Uptake of [3H]CQ (% PfCRTDd2 control), cis-inhibition, non-expressing oocytes
[15] = non-expressing oocytes, normalised to the oocyte type control, read-out: Uptake of [3H]CQ (% non-expressing oocyte control), cis-inhibition
[16] = read-out: PfCRT-mediated [3H]CQ transport, cis-inhibition (% PfCRTEcu1110 control)
[17] = read-out: Uptake of [3H]CQ (% PfCRTDd2 control), cis-inhibition, PfCRTEcu1110, SEM
[18] = read-out: Uptake of [3H]CQ (% PfCRTEcu1110 control), cis-inhibition
[19] = read-out: [3H]CQ transport (% PfCRTEcu1110 control), cis-inhibition, PfCRTEcu1110, SEM
[20] = read-out: PfCRT-mediated [3H]CQ transport, cis-inhibition (% PfCRTDd2 control)
[21] = read-out: Uptake of [3H]CQ (% PfCRTDd2 control), cis-inhibition
[22] = read-out: Uptake of [3H]CQ (% PfCRTDd2 control), cis-inhibition, PfCRTDd2, SEM
[23] = read-out: [3H]CQ transport (% PfCRTDd2 control), cis-inhibition, PfCRTDd2, SEM

T3 sequence (Q9N623 whole entry A220S/I356L/K76T/N326D): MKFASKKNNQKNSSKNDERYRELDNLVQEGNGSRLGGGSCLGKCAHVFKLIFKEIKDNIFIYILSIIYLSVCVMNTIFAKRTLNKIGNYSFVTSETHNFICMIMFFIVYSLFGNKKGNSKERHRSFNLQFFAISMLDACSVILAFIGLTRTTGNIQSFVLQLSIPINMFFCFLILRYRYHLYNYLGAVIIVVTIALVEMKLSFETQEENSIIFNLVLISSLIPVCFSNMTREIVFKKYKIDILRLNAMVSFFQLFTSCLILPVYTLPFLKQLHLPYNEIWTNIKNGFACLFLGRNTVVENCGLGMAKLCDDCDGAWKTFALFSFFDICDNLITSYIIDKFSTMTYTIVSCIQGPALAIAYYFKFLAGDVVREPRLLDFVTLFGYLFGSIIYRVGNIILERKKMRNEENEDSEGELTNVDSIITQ
T1 sequence (Q8IBZ9 59-398): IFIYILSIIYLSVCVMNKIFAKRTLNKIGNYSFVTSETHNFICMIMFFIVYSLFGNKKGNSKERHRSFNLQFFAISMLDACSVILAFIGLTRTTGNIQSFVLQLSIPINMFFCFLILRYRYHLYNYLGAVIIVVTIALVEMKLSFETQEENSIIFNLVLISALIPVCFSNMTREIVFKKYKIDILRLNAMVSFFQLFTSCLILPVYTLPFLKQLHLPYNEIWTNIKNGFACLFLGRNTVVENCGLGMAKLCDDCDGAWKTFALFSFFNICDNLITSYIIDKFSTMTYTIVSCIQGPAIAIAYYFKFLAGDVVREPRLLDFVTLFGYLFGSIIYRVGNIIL
T4 sequence (Q9N623 whole entry A220S/I356T/K76T/M74I/N326S/N75E/Q271E/R371I): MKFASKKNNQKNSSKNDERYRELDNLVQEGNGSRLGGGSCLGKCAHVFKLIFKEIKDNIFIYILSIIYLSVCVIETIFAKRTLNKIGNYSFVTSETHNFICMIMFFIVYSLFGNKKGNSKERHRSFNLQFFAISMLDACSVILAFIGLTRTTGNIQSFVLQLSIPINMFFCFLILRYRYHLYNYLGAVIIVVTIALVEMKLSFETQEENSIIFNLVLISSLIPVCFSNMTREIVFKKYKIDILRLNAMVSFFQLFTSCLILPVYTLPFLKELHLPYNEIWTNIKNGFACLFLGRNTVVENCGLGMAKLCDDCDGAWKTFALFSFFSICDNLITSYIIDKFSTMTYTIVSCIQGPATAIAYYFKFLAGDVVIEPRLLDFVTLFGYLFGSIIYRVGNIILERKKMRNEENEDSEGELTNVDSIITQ
T2 sequence (Q8IDM6 whole entry): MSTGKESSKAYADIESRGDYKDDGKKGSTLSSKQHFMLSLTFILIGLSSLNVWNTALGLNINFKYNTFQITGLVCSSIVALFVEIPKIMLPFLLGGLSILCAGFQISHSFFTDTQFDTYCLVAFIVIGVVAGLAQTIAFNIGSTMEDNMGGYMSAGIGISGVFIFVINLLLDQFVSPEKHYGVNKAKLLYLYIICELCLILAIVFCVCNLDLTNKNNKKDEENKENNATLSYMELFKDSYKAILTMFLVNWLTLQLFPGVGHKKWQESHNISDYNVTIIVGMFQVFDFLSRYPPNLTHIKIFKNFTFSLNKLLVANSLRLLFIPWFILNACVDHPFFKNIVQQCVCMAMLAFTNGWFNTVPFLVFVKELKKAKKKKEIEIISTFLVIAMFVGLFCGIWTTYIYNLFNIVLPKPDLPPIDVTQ

NC(=O)CC[C@H](N)C(=O)O [L-glutamine]
Tested as potential co-substrate but not required for influx of VF-6 via PfCRT into the oocyte [1]: X | inhibition at 500 µM [2, 12]: 101 ± 4.8% | inhibition at 1000 µM [2, 12]: 99 ± 3.6% | inhibition at 2000 µM [2, 12]: 99 ± 4.7% | inhibition at 500 µM [2, 13]: 2.6 ± 0.04% | inhibition at 1000 µM [2, 13]: 2.1 ± 0.01% | inhibition at 2000 µM [2, 13]: 2.6 ± 0.04% | Uptake of [3H]CQ (% non-expressing oocyte control), trans-stimulation ([3]; [test solute]i = 5 mM): 100 ± 3.2 % non-expressing oocyte control | Uptake of [3H]CQ (% non-expressing oocyte control), trans-stimulation ([3]; [test solute]i = 45 mM (30 mM for some solutes due to solubility)): 98 ± 2.2 % non-expressing oocyte control | Uptake of [3H]CQ (% PfCRTDd2 control), trans-stimulation, non-expressing oocytes ([3]; [test solute]i = 5 mM (intracellular)): 2.7 ± 0.07 % PfCRTDd2 control | Uptake of [3H]CQ (% PfCRTDd2 control), trans-stimulation, non-expressing oocytes ([3]; [test solute]i = 45 mM (intracellular; 30 mM for some solutes due to solubility)): 2.7 ± 0.05 % PfCRTDd2 control | Tested as potential co-substrate but not required for influx of VF-6 via PfCRT into the oocyte [4]: X | activity at 5000 µM ([5]; PfNT1 oocytes, [test solute]i = 5 mM, normalised to the oocyte type control, read-out: Uptake of [3H]CQ (% PfNT1 control), trans-stimulation): 99 ± 4.2% | activity at 45000 µM ([5]; SEM, read-out: Uptake of [3H]CQ (% PfCRTDd2 control), trans-stimulation, PfNT1): 2.8 ± 0.02% | activity at 45000 µM ([5]; read-out: Uptake of [3H]CQ (% PfNT1 control), trans-stimulation): 98 ± 3.1% | activity at 5000 µM ([5]; [test solute]i = 5 mM (intracellular), mean ± SEM, SEM, read-out: Uptake of [3H]CQ (% PfCRTDd2 control), trans-stimulation, PfNT1): 3.2 ± 0.02% | activity at 5000 µM ([6]; pH 5.5, read-out: PfCRT-mediated [3H]CQ transport, trans-stimulation (% PfCRTEcu1110 control), [test solute]i = 5 mM (intracellular), PfCRTEcu1110 oocytes, normalised to oocyte type control): 97 ± 3.3% | activity at 5000 µM ([6]; pH 5.5, read-out: Uptake of [3H]CQ (% PfCRTEcu1110 control), trans-stimulation, PfCRTEcu1110 oocytes, [test solute]i = 5 mM, total [3H]CQ transport, normalised to the oocyte type control): 99 ± 2.7% | activity at 45000 µM ([6]; pH 5.5, read-out: Uptake of [3H]CQ (% PfCRTEcu1110 control), trans-stimulation, PfCRTEcu1110 oocytes, [test solute]i = 45 mM (30 mM for some solutes due to solubility), total [3H]CQ transport, normalised to the oocyte type control): 99 ± 3.5% | activity at 5000 µM ([6]; read-out: Uptake of [3H]CQ (% PfCRTDd2 control), trans-stimulation, PfCRTEcu1110, total [3H]CQ transport, [test solute]i = 5 mM (intracellular), mean ± SEM, SEM): 35 ± 1.3% | activity at 45000 µM ([6]; read-out: Uptake of [3H]CQ (% PfCRTDd2 control), trans-stimulation, PfCRTEcu1110, total [3H]CQ transport, [test solute]i = 45 mM (intracellular; 30 mM for some solutes due to solubility), mean ± SEM, SEM): 35 ± 2.6% | activity at 5000 µM ([7]; pH 5.5, read-out: PfCRT-mediated [3H]CQ transport, trans-stimulation (% PfCRTDd2 control), [test solute]i = 5 mM (intracellular), PfCRTDd2 oocytes, normalised to oocyte type control): 99 ± 3.4% | activity at 5000 µM ([7]; pH 5.5, read-out: Uptake of [3H]CQ (% PfCRTDd2 control), trans-stimulation, PfCRTDd2, total [3H]CQ transport, [test solute]i = 5 mM (intracellular), mean ± SEM, SEM): 101 ± 2.2% | activity at 5000 µM ([7]; pH 5.5, read-out: Uptake of [3H]CQ (% PfCRTDd2 control), trans-stimulation, PfCRTDd2 oocytes, [test solute]i = 5 mM, total [3H]CQ transport, normalised to the oocyte type control): 101 ± 2.2% | activity at 45000 µM ([7]; pH 5.5, read-out: Uptake of [3H]CQ (% PfCRTDd2 control), trans-stimulation, PfCRTDd2 oocytes, total [3H]CQ transport, normalised to the oocyte type control): 100 ± 2.4% | activity at 5000 µM ([7]; pH 5.5, read-out: [3H]CQ transport (% PfCRTDd2 control), trans-stimulation, PfCRTDd2, trans-stimulation, [test solute]i = 5 mM (injected), PfCRT-mediated component (background subtracted), mean ± SEM, SEM): 99 ± 3.4% | activity at 45000 µM ([7]; pH 5.5, read-out: [3H]CQ transport (% PfCRTDd2 control), trans-stimulation, PfCRTDd2, trans-stimulation, PfCRT-mediated component (background subtracted), mean ± SEM, SEM): 98 ± 3.7% | activity at 5000 µM ([8]; PfCRT3D7 oocytes, [test solute]i = 5 mM, total [3H]CQ transport, normalised to the oocyte type control, read-out: Uptake of [3H]CQ (% PfCRT3D7 control), trans-stimulation): 99 ± 3.2% | [3H]CQ transport (% PfCRT3D7 control), trans-stimulation, PfCRT3D7 ([8]; SEM): 0.3 ± 0.01 % PfCRT3D7 control | activity at 5000 µM ([8]; [test solute]i = 5 mM (intracellular), PfCRT3D7 oocytes, normalised to oocyte type control, read-out: PfCRT-mediated [3H]CQ transport, trans-stimulation (% PfCRT3D7 control)): 97 ± 4.6% | activity at 45000 µM ([8]; SEM, read-out: Uptake of [3H]CQ (% PfCRTDd2 control), trans-stimulation, PfCRT3D7): 3.3 ± 0.04% | activity at 45000 µM ([8]; read-out: PfCRT-mediated [3H]CQ transport, trans-stimulation (% PfCRT3D7 control)): 98 ± 1% | activity at 45000 µM ([8]; read-out: Uptake of [3H]CQ (% PfCRT3D7 control), trans-stimulation): 100 ± 2.7% | activity at 5000 µM ([8]; total [3H]CQ transport, [test solute]i = 5 mM (intracellular), mean ± SEM, SEM, read-out: Uptake of [3H]CQ (% PfCRTDd2 control), trans-stimulation, PfCRT3D7): 3.3 ± 0.01% | inhibition at 500 µM [9, 14]: 3.2 ± 0.07% | inhibition at 1000 µM [9, 14]: 2.7 ± 0.05% | inhibition at 2000 µM [9, 14]: 2.2 ± 0.03% | inhibition at 500 µM [9, 15]: 99 ± 3.2% | inhibition at 1000 µM [9, 15]: 100 ± 6.3% | inhibition at 2000 µM [9, 15]: 98 ± 3.5% | inhibition at 1000 µM [10, 16]: 95 ± 3.5% | inhibition at 2000 µM [10, 16]: 96 ± 6.2% | inhibition at 500 µM [10, 17]: 32 ± 0.4% | inhibition at 1000 µM [10, 17]: 32 ± 1.4% | inhibition at 2000 µM [10, 17]: 32 ± 1.1% | inhibition at 500 µM [10, 18]: 98 ± 6.9% | inhibition at 1000 µM [10, 18]: 97 ± 6.4% | inhibition at 2000 µM [10, 18]: 99 ± 6.3% | inhibition at 500 µM [10, 19]: 29 ± 1.2% | inhibition at 1000 µM [10, 19]: 29 ± 0.2% | inhibition at 2000 µM [10, 19]: 29 ± 0.1% | inhibition at 500 µM [11, 20]: 98 ± 2.8% | inhibition at 1000 µM [11, 20]: 98 ± 3.6% | inhibition at 2000 µM [11, 20]: 95 ± 5.5% | inhibition at 500 µM [11, 21]: 100 ± 4.9% | inhibition at 1000 µM [11, 21]: 100 ± 5.2% | inhibition at 500 µM [11, 22]: 100 ± 4.9% | inhibition at 1000 µM [11, 22]: 100 ± 5.2% | inhibition at 2000 µM [11, 22]: 97 ± 8.3% | inhibition at 500 µM [11, 23]: 98 ± 2.8% | inhibition at 1000 µM [11, 23]: 98 ± 3.6%
